In data set [1] the test system is P. aeruginosa. Kind of data set: time-kill assays (FIG. 9). The following applies: as compared to M1-M5. Format: cell-based, Pseudomonas aeruginosa. Here is the method: FIG. 9. depicts the antibiotic activity (in concentration of polypeptide at 0.375 mg/ml (****), 0.75 mg/ml (***), 1.5 mg/ml (**), or 3 mg/ml (*), as indicated) for each of polypeptides (SEQ ID NO: 1 (M1); SEQ ID NO: 6 (M2); SEQ ID NO: 11 (M3); SEQ ID NO: 16 (M4); SEQ ID NO: 21 (M5); SEQ ID NO: 26 (M6); SEQ ID NO: 31 (M7); SEQ ID NO: 36 (M8); SEQ ID NO: 41 (M9); SEQ ID NO: 76 (M10); SEQ ID NO: 106 (M11); SEQ ID NO: 141 (M12); SEQ ID NO: 142 (M13); SEQ ID NO: 177 (M14); SEQ ID NO:178 (M15); SEQ ID NO: 213 (M16); SEQ ID NO: 219 (M18), SEQ ID NO: 220 (M19); SEQ ID NO: 256 (M21); and SEQ ID NO: 291 (M22)) against P. aeruginosa and S. aureus MRSA, as indicated.
In FIG. 9, the bacterial pathogens P. aeruginosa and S. aureus—associated with skin, burn and wound infections were tested.

A further data set concerns G. vaginalis. Kind of data set: direct kill assay (time-kill, FIG. 8). The format is cell-based, Gardnerella vaginalis. The following applies: 0.375, 0.75, 1.5 mg/ml peptide, spotted 30 min post incubation. Here is the method:
(§1) For these peptides, 0.375 mg/ml concentration is sufficient to cause loss of viability of G. vaginalis and L. iners as compared to the absence of peptides. In FIG. 8A, M1-M8 peptides (SEQ ID NOS: 1, 6, 11, 16, 21, 26, 31, and 36) were tested using direct kill assays. Equal inoculums of G. vaginalis, L. iners and L. crispatus were incubated with either water (0.00), or 0.375 mg/ml, 0.75 mg/ml and 1.5 mg/ml. of peptides. Aliquots were spotted 30 minutes (min) post incubation on human blood tween (HBT) bilayer media, Tryptic soy agar (+5% sheep blood) or MRS (de Man, Rogosa, and Sharpe) agar plates respectively. For these peptides, 0.375 mg/ml concentration is sufficient to cause loss of viability of G. vaginalis and L. iners as compared to the absence of peptides.

The subject of a further data set is L. iners. Kind of data set: direct kill assay (time-kill, FIG. 8). Particulars: 0.375, 0.75, 1.5 mg/ml peptide, spotted 30 min post incubation. The format is cell-based, Lactobacillus iners. Here is the method:
as §1

Another data set concerns L. crispatus. Kind of data set: direct kill assay (time-kill, FIG. 8). The format is cell-based, Lactobacillus crispatus. Particulars: 0.375, 0.75, 1.5 mg/ml peptide, spotted 30 min post incubation. Here is the method: as §1
Data set [2] concerns EpiVaginal tissue model (Mattek). Format: cell-based. As for the experimental part:
Table 2 below show the results of peptides M6 (SEQ ID NO: 26) and M14 (SEQ ID NO: 177) were assayed for their impact on vaginal irritation using the Epi Vaginal model to determine the exposure time to decrease the tissue viability to 50% (ET50) in EpiVaginal™ tissue model (Mattek). In brief, after exposure to the M6 and M14 peptides at 20 mg/ml final concentration for various times, toxicity was determined by measuring the relative conversion of MTT (3-(4,5-dimethylthiazol-2-yl)-2,5-dephenyltetrazolium bromide) in the vaginal tissue samples treated with peptide compared to tissues treated with a solvent negative control. Positive control was Triton-X-100 at 1% final concentration.

For another data set, the system named is S. epidermidis. Kind of data set: colony-forming assay, CFU/ml over time (FIG. 10C). Format: cell-based, Staphylococcus epidermidis. The following applies: peptide 0.5% (5 mg/ml), 0.8% NaCl, T=0 up to 60 minutes. The text has this:
(§2) FIGS. 10A, 10B, and 10C are graphs depicting bacterial viability in colony forming units (CFU) per milliliter (ml) over time (minutes) in the presence of select polypeptides: SEQ ID NO: 26 (M6); SEQ ID NO: 31 (M7); SEQ ID NO: 177 (M14); SEQ ID NO: 213 (M16); and SEQ ID NO: 291 (M22) in comparison to Indolicidin (IND) in the presence of P. aeruginosa (FIG. 10A), S. aureus MRSA (FIG. 10B), and S. epidermidis (FIG. 10C), respectively.
(§3) In FIGS. 10A, 10B, and 10C, quantitative colony-forming units/ml were assayed using the indicated peptides at a final concentration of 0.5% (5 mg/ml). For this colony-forming assay, peptides were incubated with indicated bacterial strains in 0.8% NaCl, and aliquots were removed starting time T=0, up to 60 minutes, followed by serial dilution and plating on Tryptic soy agar plates for overnight incubation, and enumeration of CFU/ml.

Data set [3] concerns S. aureus MRSA. Kind of data set: direct kill assay of formulated peptide (FIG. 13). Format: cell-based, Staphylococcus aureus. The following applies: 0.5% by weight peptide in 20% propylene glycol and 2% hydroxypropyl cellulose. As for the experimental part:
(§4) FIG. 13 depicts the retention of antimicrobial activity of the indicated peptides M6 (SEQ ID NO: 26), M14 (SEQ ID NO:177), M16 (SEQ ID NO: 213) and M22 (SEQ ID NO: 291), with each peptide formulated in a composition with 20% propylene glycol and 2% hydroxypropyl cellulose (F is the formulation without a peptide), in the presence of S. aureus MRSA, from 0 minutes (min) to 60 minutes, as indicated, where the amount of growth is indicated as: 4 is full growth; 3 is too many colonies to count; 2 is countable colonies; and 1 is no growth.
In FIG. 13, the impact of the formulation comprising 20% propylene glycol and 2% hydroxypropyl cellulose and 0.5% by weight of peptide M6 (SEQ ID NO: 26), M7 (SEQ ID NO: 31), M14 (SEQ ID NO: 177), M16 (SEQ ID NO: 213), or M22 (SEQ ID NO: 291) was tested using a direct kill assay.

Data set [4] has as its system S. aureus MRSA. Kind of data set: colony-forming assay, CFU/ml over time (FIG. 10B). The format is cell-based, Staphylococcus aureus. Particulars: peptide 0.5% (5 mg/ml); for sensitivity of S. aureus to peptide (CFU/ml): 0.8% NaCl, T=0 up to 60 minutes; for sensitivity of S. aureus MRSA to peptide as compared to Indolicidin: after 20 minutes.
Description: as §2, §3

For data set [5], the system named is P. aeruginosa. Kind of data set: colony-forming assay, CFU/ml over time (FIG. 10A). The format is cell-based, Pseudomonas aeruginosa. The following applies: peptide 0.5% (5 mg/ml); for sensitivity of P. aeruginosa to peptide (CFU/ml): 0.8% NaCl, T=0 up to 60 minutes; for sensitivity of P. aeruginosa to peptide as compared to Indolicidin: after 20 minutes.
Description: as §2, §3

For data set [6], the system named is A. baumannii. Kind of data set: direct kill assay of formulated peptide (FIG. 12D). The format is cell-based, Acinetobacter baumannii. Particulars: 0.5% peptide in 20% propylene glycol and 2% hydroxypropyl cellulose, 0-60 min. As for the experimental part: as §4, with “FIGS. 12A, 12B, 12C, and 12D depict” for “FIG. 13 depicts”, “G. vaginalis (FIG. 12A), L. iners (FIG. 12B), L. crispatus (FIG. 12C), or A. baumannii (FIG. 12D),” for “S. aureus MRSA,”
In FIGS. 12A, 12B, 12C, and 12D, the impact of the formulation comprising 20% propylene glycol and 2% hydroxypropyl cellulose and 0.5% by weight of peptide M6 (SEQ ID NO: 26), M7 (SEQ ID NO: 31), M14 (SEQ ID NO: 177), M16 (SEQ ID NO: 213), or M22 (SEQ ID NO: 291) was tested in a direct kill assay as described herein.

Data set [7] has as its system MRSN panel P. aeruginosa strain NR-51553. Format: cell-based, Pseudomonas aeruginosa. The following applies: 0.5% CMC and 0.01×MH broth. The text has this:
FIGS. 15A-15B show the growth of P. aeruginosa strain NR-51553 of FIG. 14A in a modified CLSI-based broth dilution assay, in the presence of peptide M16 (SEQ ID NO: 213) in 0.01×MH broth (FIG. 15A) and in the presence of peptide M16 in 0.01×MH broth and 0.5% carboxymethyl cellulose (CMC) (FIG. 15B), where the amount of growth is indicated as: 4 is full growth; 3 is too many colonies to count; 2 is countable colonies; and 1 is no growth.
FIG. 14A indicates sensitive(S) or resistant (R) relative to the listed antibiotic for eight of the more peptide-resistant […] strains of 100 MRSN panel strains (NR-51553, NR-51556, NR-51570, NR51597, NR-51520, NR-51546, NR-51574, and NR-51588). […] CLSI-based method described in CLSI document M07-A10, Vol. 35, No. 2, 2015 (ISBN 1-56238-988-2).

Data set [8] concerns A. baumannii. Kind of data set: growth of A. baumannii with peptide (FIG. 17). The format is cell-based, Acinetobacter baumannii. Particulars: 250 μg/ml peptide, 0.01×MH broth.

Where no end group is shown, it is not given here. Some results are limits rather than exact numbers.

Results on 13 substances are retold here after patent US20250340592A1, “MAMMALIAN MILK-DERIVED PEPTIDES WITH ANTIMICROBIAL ACTIVITY” (MATRUBIALS INC., priority 2022, published 2025).

As for KTPKAVNKCR (Synthetic: M8), the “effectiveness in reducing the viability of P. aeruginosa” value in the data set on P. aeruginosa [1] was “more effective”. In the data set on G. vaginalis, the “polypeptides target G. vaginalis (time-kill images)” value (shortened to “polypeptides target G. vaginalis”) is recorded as “target”. Moreover, the “polypeptides target L. iners (time-kill images)” value (“polypeptides target L. iners” below) in the data set with L. iners is given as “target”. The “polypeptides target L. crispatus (time-kill images)” value (from here on “polypeptides target L. crispatus”) with L. crispatus is “not L. crispatus”.

For the substance RGPPKSCRKRD [M14, RGPPKSCRKRD], in data set [2], the “ET50” value is >24 h.

With PVPQKVRPQR (Synthetic: M7), in the data set on S. epidermidis, the “sensitivity of S. epidermidis to peptide (CFU/ml)” value was “also sensitive”. The “effectiveness in reducing the viability of P. aeruginosa” value in the data set with P. aeruginosa [1] was “more effective”. Also, in the data set with G. vaginalis, the “polypeptides target G. vaginalis” value is recorded as “target”. For the same substance, the “antibacterial activity against S. aureus MRSA in formulation” value (shortened to “antibacterial activity”) in the data set with S. aureus MRSA [3] was “retains antibacterial activity”. The “polypeptides target L. iners” value in the data set on L. iners is “target”. In the data set on S. aureus MRSA [4], the “sensitivity of S. aureus to peptide (CFU/ml)” value is recorded as “also sensitive” and the “sensitivity of S. aureus MRSA to peptide as compared to Indolicidin” value is on record as “more sensitive”. In addition, in the data set with P. aeruginosa [5], the “sensitivity of P. aeruginosa to peptide (CFU/ml)” value was “particularly sensitive” and the “sensitivity of P. aeruginosa to peptide as compared to Indolicidin” value is listed as “more sensitive”. For the same substance, the “polypeptides target L. crispatus” value in the data set on L. crispatus was “not L. crispatus”.

On to HYYAVAVVK (Synthetic: M22), for which, in the data set on S. aureus MRSA [3], the “antibacterial activity” value is given as “retains antibacterial activity” and the “time from which viability of S. aureus MRSA is reduced” value is 0 min.

For the substance QHQKAKKPWT (Synthetic: M3), in the data set on G. vaginalis, the “polypeptides target G. vaginalis” value is on record as “target”. Further, in the data set with L. iners, the “polypeptides target L. iners” value is “target”. Moreover, the “polypeptides target L. crispatus” value with L. crispatus was “not L. crispatus”.

HKYAVRVVKK [M16, HKYAVRVVKK]: the “sensitivity of S. epidermidis to peptide (CFU/ml)” value with S. epidermidis is “also sensitive”. In the data set on A. baumannii [6], the “sensitivity of growth of A. baumannii, as compared to M22” value is recorded as “more sensitive”. Also, the “antibacterial activity” value in the data set with S. aureus MRSA [3] is reported as “retains antibacterial activity”. Moreover, in the data set on S. aureus MRSA [4], the “sensitivity of S. aureus to peptide (CFU/ml)” value was “also sensitive” and the “sensitivity of S. aureus MRSA to peptide as compared to Indolicidin” value is “more sensitive”. The “minimal bactericidal concentration (MBC)” value in [7] is 15 µg/mL. Moreover, the “efficacy on A. baumannii, M16 at 4 hours compared to M14 at 24 hours” value with A. baumannii [8] is given as “more efficacious”. Moreover, in the data set with P. aeruginosa [5], the “sensitivity of P. aeruginosa to peptide (CFU/ml)” value is reported as “particularly sensitive” and the “sensitivity of P. aeruginosa to peptide as compared to Indolicidin” value is given as “more sensitive”.

With RPRIPKASAK [M6, RPRIPKASAK], the “ET50” value in data set [2] was >24 h.

For GKRKPVTRAR (Synthetic: M2), the “polypeptides target G. vaginalis” value with G. vaginalis is listed as “target”. The “polypeptides target L. iners” value with L. iners is “target”. The “polypeptides target L. crispatus” value with L. crispatus is “not L. crispatus”.

NTNRPRTKRA (Synthetic: M5): the “polypeptides target G. vaginalis” value in the data set with G. vaginalis is reported as “target”. The “polypeptides target L. iners” value in the data set on L. iners was “target”. Moreover, the “polypeptides target L. crispatus” value in the data set on L. crispatus was “not L. crispatus”.

As to PKVERRPRPR (Synthetic: M1), the “polypeptides target G. vaginalis” value in the data set with G. vaginalis is given as “target”. The “polypeptides target L. iners” value with L. iners is reported as “target”. In the data set on L. crispatus, the “polypeptides target L. crispatus” value was “not L. crispatus”.

Turning to RQPRTHKYAVRVVKK (Synthetic: M15), the “effectiveness in reducing the viability of P. aeruginosa” value with P. aeruginosa [1] is on record as “more effective”.

Regarding HQKMAKPWTQ (Synthetic: M4), in the data set on G. vaginalis, the “polypeptides target G. vaginalis” value was “target”. The “polypeptides target L. iners” value in the data set with L. iners is reported as “target”. Besides, the “polypeptides target L. crispatus” value with L. crispatus is on record as “not L. crispatus”.

Turning to Triton-X-100 [reference compound], the “ET50” value in data set [2] worked out at 1.55 h.
